The term inhibition denotes how much of the control response was suppressed.

Format in all cases: functional
The test system of one test is Ehrlich. Briefly: Antitumor activity against mouse Ehrlich cells implanted in BALB/c nude mouse assessed as increase in apoptotic cell death at 5 mg/kg, ip administered once daily for 7 days relative to control. To be noted: time 7 day.
The subject of test [1] is MDA-MB-435. Description: Antiproliferative activity against human MDA-MB-435 cells assessed as inhibition of cell growth at 10 uM in presence of paclitaxel relative to control.
For test [2], the system named is MDA-MB-435. Description: Antiproliferative activity against human MDA-MB-435 cells assessed as inhibition of cell growth at 1 nM relative to control.

On to `COc1cc(/C=C/C(=O)/C=C/c2ccc(O)c(OC)c2)ccc1[O-].[Na+]`, for which the Activity in the test with Ehrlich was determined as 30%.
`CCc1ccc(/C=C/C(=O)/C=C(O)/C=C/c2ccc(OC)c(O)c2OC)c(CC)c1O`: the inhibition at 10 µM in the test with MDA-MB-435 [1] stood at 45%.
On to `CC(=O)O[C@H]1C(=O)[C@@]2(C)[C@H]([C@H](OC(=O)c3ccccc3)[C@]3(O)C[C@H](OC(=O)[C@H](O)[C@@H](NC(=O)c4ccccc4)c4ccccc4)C(C)=C1C3(C)C)[C@]1(OC(C)=O)CO[C@@H]1C[C@@H]2O` [PACLITAXEL], for which the inhibition at 0.001 µM in the test with MDA-MB-435 [2] is 97%.

The values are drawn from ChEMBL document CHEMBL6114941, “Recent progress on small molecule TLR4 antagonist against triple-negative breast cancer progression and complications” (2024).
